From the supplement of paper PMC10307832

How the values were obtained:
Assay in all cases: relative viability (nuclei count vs DMSO), 5 days (fraction); higher = more cells survive
[1] = compound: CCC1=CN=CN=C1N2CCN(CC2)CC3=NC4=C(N3)C=C(C=C4)C(F)(F)F
How it was run: (§1)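 Lung cancer cell lines were seeded into 1536-well plates, kept overnight at 37 °C and pinned with five library-drug doses (not always all listed) spaced by √10. After 5 days, nuclei were Hoechst-stained, imaged at 4× and counted with MetaXpress. Viability is treated-well nuclei over vehicle-well nuclei, taken as a median across plates. Plates needed control CV below 25% and at least one doubling.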

[2] = compound: CCn1c(-c2nonc2N)nc2cnc(Oc3cccc(NC(=O)c4ccc(OCCN5CCOCC5)cc4)c3)cc21
How it was run: as §1

Mirin = compound: N=C1NC(=O)/C(=C/c2ccc(O)cc2)S1 [Mirin]
How it was run: as §1

Mirin + Foretinib = compound: N=C1NC(=O)/C(=C/c2ccc(O)cc2)S1 [Mirin] + COc1cc2c(Oc3ccc(NC(=O)C4(C(=O)Nc5ccc(F)cc5)CC4)cc3F)ccnc2cc1OCCCN1CCOCC1 [Foretinib] (partner 0.25 µM)
How it was run: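 Cells from lung cancer lines were seeded into 1536-well plates and, one day later, dosed by pin tool. Treatments were either a single drug or a fixed dose of an anchor drug with five library-drug doses (not always all listed) in √10 steps. After 5 days, nuclei were stained in a one-step fixation (final 0.05% Triton X-100, 1% formaldehyde, 1 ug/ml Hoechst) and counted on 4× images, and relative viability is the treated-to-vehicle nuclei ratio, as the median of duplicate plates.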

| Cell Line | relative viability ([1]; 0.04 µM) | relative viability ([1]; 0.1265 µM) | relative viability ([1]; 0.4 µM) | relative viability ([1]; 1.265 µM) | relative viability ([1]; 4 µM) | relative viability ([2]; 0.04 µM) | relative viability ([2]; 0.1265 µM) | relative viability ([2]; 0.4 µM) | relative viability ([2]; 1.265 µM) | relative viability ([2]; 4 µM) | relative viability (Mirin; 0.25 µM) | relative viability (Mirin; 0.7906 µM) | relative viability (Mirin; 2.5 µM) | relative viability (Mirin; 7.906 µM) | relative viability (Mirin; 25 µM) | relative viability (Mirin + Foretinib; first compound 0.25 µM) | relative viability (Mirin + Foretinib; first compound 0.7906 µM) | relative viability (Mirin + Foretinib; first compound 2.5 µM) | relative viability (Mirin + Foretinib; first compound 7.906 µM) | relative viability (Mirin + Foretinib; first compound 25 µM) |
| --- | --- | --- | --- | --- | --- | --- | --- | --- | --- | --- | --- | --- | --- | --- | --- | --- | --- | --- | --- | --- |
| NCI-H2023 | 1.03 | 0.914 | 0.917 | 0.858 | 1.03 | 1.13 | 0.964 | 0.743 | 0.508 | 0.419 | 1.01 | 0.937 | 0.958 | 0.975 | 0.86 | 0.806 | 0.837 | 0.993 | 0.894 | 0.919 |
| NCI-H647 | 0.891 | 0.915 | 0.828 | 0.711 | 1.03 | 1.08 | 0.707 | 0.705 | 0.458 | 0.55 | 1.11 | 0.864 | 0.975 | 0.918 | 0.904 | 1.4 | 1.27 | 1.14 | 1.32 | 0.946 |
| SK-MES-1 | 1.04 | 0.975 | 0.983 | 1 | 0.985 | 1.1 | 0.915 | 0.82 | 0.709 | 0.746 | 1.02 | 1.1 | 1.05 | 1.12 | 1.28 | 0.859 | 1.07 | 0.914 | 0.945 | 1.31 |
| NCI-H1793 | 0.894 | 0.796 | 0.702 |  | 0.796 | 0.897 | 0.838 | 0.526 | 0.587 | 0.483 | 1.1 |  | 0.987 | 0.914 | 0.826 | 0.731 |  | 0.739 | 0.777 | 0.559 |
| IA-LM | 0.839 | 0.96 | 0.891 | 0.931 | 0.89 | 1.34 | 1.06 | 0.998 | 0.952 | 1.02 | 0.962 | 1.07 | 0.928 | 0.653 | 1.18 | 1.12 | 1.07 | 1.23 | 0.757 | 1.09 |
| NCI-H3122 | 1.05 | 1.01 | 0.964 | 1.03 | 1.1 | 1.01 | 0.978 | 0.924 | 0.755 | 0.695 | 1.03 | 0.953 | 1.02 | 1.08 | 1.1 | 0.919 | 0.906 | 0.934 | 1.08 | 1.09 |
| A549 | 0.978 | 0.868 | 0.921 | 0.934 | 0.89 | 1.24 | 1.01 | 0.742 | 0.116 | 0.116 | 1.01 | 0.982 | 1.05 | 0.913 | 0.953 | 0.89 | 1.02 | 0.902 | 0.956 | 1.04 |
| LCLC-103H | 1.02 | 0.927 | 0.928 | 0.841 | 1.11 | 1.09 | 0.981 | 0.783 | 0.705 | 0.775 | 0.99 | 0.977 | 1.05 | 0.929 | 1.07 | 0.909 | 0.825 | 0.839 | 0.955 | 0.8 |
| NCI-H520 | 0.953 | 0.902 | 0.962 | 0.746 | 1.02 | 1.24 | 1.05 | 0.978 | 0.567 | 0.511 | 1 | 0.882 | 1.02 | 0.808 | 0.709 | 0.742 | 0.784 | 0.874 | 0.874 | 0.439 |
| NCI-H1755 | 1.05 | 0.937 | 0.978 | 0.872 | 1 | 1.02 | 0.913 | 0.71 | 0.627 | 0.577 | 1.03 | 1.01 | 1.01 | 1.02 | 1.13 | 1 | 0.918 | 0.963 | 0.931 | 1.05 |
| NCI-H358 | 1.06 | 0.866 | 0.858 | 0.806 | 0.915 | 0.934 | 0.919 | 0.577 | 0.829 | 0.619 | 0.888 | 0.901 | 0.998 | 0.9 | 0.714 | 0.734 | 0.742 | 0.739 | 0.565 | 0.406 |
| NCI-H1734 | 0.88 | 0.98 | 0.943 | 0.814 | 1.03 | 0.961 | 0.878 | 0.545 | 0.418 | 0.362 | 0.978 | 0.761 | 0.929 | 0.895 | 0.884 | 0.847 | 0.739 | 0.788 | 0.849 | 0.702 |
| EPLC-272H | 0.801 | 0.979 | 0.87 | 0.797 | 0.793 | 1.26 | 1.01 | 0.873 | 0.705 | 0.74 | 0.944 |  | 0.945 | 0.762 | 0.721 | 0.744 |  | 0.602 | 0.519 | 0.306 |
| NCI-H2228 | 1 | 0.858 | 0.99 | 0.928 | 0.98 | 1.26 | 0.964 | 0.908 | 0.919 | 0.881 | 1.09 | 0.89 | 0.969 | 0.886 | 1.02 | 0.689 | 0.883 | 0.974 | 1.1 | 0.752 |
